pIC50: −log10 of the molar value.
target: T1, human PDE5 (Homo sapiens, UniProt O76074); assay: Inhibition of the type 5 phosphodiesterase (PDE5) activity, modified SPA test with platelet lysate; assay type: biochemical; settings: PDE5 from human platelet lysate, 0.5 μM cGMP
T1 construct: from tissue; host or cells: platelets from fresh blood of human donors (lysate, 10,000 g supernatant)
Protocol: Method for Measuring Inhibition of the Type 5 Phosphodiesterase (PDE5) Activity:
As a source for human PDE5, platelets are used. For that purpose, 150 ml fresh blood from human donors anticoagulated with citrate [final concentration 0.3% (w/v)] is centrifuged at 200 g for 10 min to obtain the so-called platelet-rich-plasma (PRP) as a supernatant. 1/10 volume of ACD solution (85 mM Na3-citrate, 111 mM D-glucose, 71 mM citric acid, pH 4.4) is added to 9/10 volume of PRP. After centrifugation (1,400 g, 10 min) the cell pellet is resuspended in 3 ml homogenization buffer (NaCl 140 mM, KCl 3.8 mM, EGTA (ethylene glycol tetraacetic acid) 1 mM, MgCl2 1 mM, Tris-HCl 20 mM, beta-mercaptoethanol 1 mM, pH 8.2) plus protease-inhibitor mix giving rise to the final concentrations of 0.5 mM Pefablock (Roche), 10 μM Leupeptin, 5 μM Trypsininhibitor, 2 mM Benzamidin and 10 μM Pepstatin A. The suspension is sonified and thereafter centrifuged for 15 min at 10,000 g. The resulting supernatant (platelet lysate) is used for enzymatic testings.
PDE5A1 activity is inhibited by the compounds of the invention in a modified SPA (scintillation proximity assay) test, supplied by Amersham Biosciences (see procedural instructions “phosphodiesterase [3H]cAMP SPA enzyme assay, code TRKQ 7090”), carried out in 96-well microtitre plates (MTP's). The test volume is 100 μl and contains 20 mM Tris buffer (pH 7.4), 0.1 mg of BSA (bovine serum albumin)/ml, 5 mM Mg^2+, 1 μM motapizone, 10 nM PDE2 inhibitor 2-(3,4-dimethoxybenzyl)-7-[(1R,2R)-2-hydroxy-1-(2-phenylethyl)propyl]-5-methylimidazo[5,1-f][1,2,4]triazin-4(3H)-one, 0.5 μM cGMP (cyclic guanosine monophosphate) (including about 50,000 cpm of [3H]cGMP as a tracer), 1 μl of the respective compound dilution in dimethylsulfoxide (DMSO) and sufficient PDE5-containing platelet lysat (10,000×g supernatant, see above) to ensure that 10-20 wt % of the cGMP is converted under the said experimental conditions. […] After a preincubation of 5 min at 37° C., the reaction is started by adding the substrate (cGMP) and the assay is incubated for a further 15 min; after that, it is stopped by adding SPA beads (50 μl). In accordance with the manufacturer's instructions, the SPA beads had previously been resuspended in water, but are then diluted 1:3 (v/v) in water; the diluted solution also contains 3 mM […] (IBMX) to ensure a complete PDE activity stop. After the beads have been sedimented (>30 min), the MTP's are analyzed in commercially available luminescence detection de-vices. The corresponding IC50 values of the compounds for the inhibition of PDE activity are deter-mined from the concentration-effect curves by means of non-linear regression.

| pIC50 | Molecule | -log IC50 (mol/l) |
| --- | --- | --- |
| – | 4-(2-Cyclopropylmethoxy-4-fluoro-5-methoxy-phenyl)-5H-pyrrolo[3,2-d]pyrimidine-7-carboxylic acid ((R)-1-acetyl-pyrrolidin-3-yl)-amide [Example 103] | 9.33 |
| – | 4-(5-Cyclopropylmethoxy-benzo[1,3]dioxol-4-yl)-5H-pyrrolo[3,2-d]pyrimidine-7-carboxylic acid ((R)-1-propionyl-piperidin-3-yl)-amide [Example 47] | 9.64 |
| – | 4-({1-[4-(5-Cyclopropylmethoxy-benzo[1,3]dioxol-4-yl)-5H-pyrrolo[3,2-d]pyrimidin-7-yl]-methanoyl}-amino)-piperidine-1-carboxylic acid ethyl ester [Example 2] | 10.01 |
| 10.11 | CCC(=O)N1CCC(NC(=O)c2c[nH]c3c(-c4c(OCC5CC5)ccc5c4OCO5)ncnc23)CC1 [Example 1, 4-(5-Cyclopropylmethoxy-1,3-benzodioxol-4-yl)-5H-pyrrolo[3,2-d]pyrimidine-7-carboxylic acid (1-propionyl-piperidin-4-yl)-amide] | – |
| 9.40 | COCC(=O)N1CCC(NC(=O)c2c[nH]c3c(-c4c(OCC5CC5)ccc5c4OCO5)ncnc23)CC1 [Example 3, 4-(5-Cyclopropylmethoxy-benzo[1,3]dioxol-4-yl)-5H-pyrrolo[3,2-d]pyrimidine-7-carboxylic acid [1-(2-methoxy-acetyl)piperidin-4-yl]-amide] | – |
| 9.79 | CC(=O)N[C@H]1CC[C@H](NC(=O)c2c[nH]c3c(-c4c(OCC5CC5)ccc5c4OCO5)ncnc23)CC1 [Example 4, trans-4-(5-Cyclopropylmethoxy-benzo[1,3]dioxol-4-yl)-5H-pyrrolo[3,2-d]pyrimidine-7-carboxylic acid (4-acetylamino-cyclohexyl)-amide] | – |
| 9.91 | O=C(N[C@H]1CC[C@H](NC(=O)C2CC2)CC1)c1c[nH]c2c(-c3c(OCC4CC4)ccc4c3OCO4)ncnc12 [Example 5, trans-4-(5-Cyclopropylmethoxy-benzo[1,3]dioxol-4-yl)-5H-pyrrolo[3,2-d]pyrimidine-7-carboxylic acid {4-[(1-cyclopropyl-methanoyl)-amino]-cyclohexyl}-amide] | – |
| 10.07 | CCOC(=O)N[C@H]1CC[C@H](NC(=O)c2c[nH]c3c(-c4c(OCC5CC5)ccc5c4OCO5)ncnc23)CC1 [Example 6, trans-[4-({1-[4-(5-Cyclopropylmethoxy-benzo[1,3]dioxol-4-yl)-5H-pyrrolo[3,2-d]pyrimidin-7-yl]-methanoyl}-amino)-cyclohexyl]-carbamic acid ethyl ester] | – |
| 9.67 | CC(=O)N[C@H]1CC[C@@H](NC(=O)c2c[nH]c3c(-c4c(OCC5CC5)ccc5c4OCO5)ncnc23)CC1 [Example 7, cis-4-(5-Cyclopropylmethoxy-benzo[1,3]dioxol-4-yl)-5H-pyrrolo[3,2-d]pyrimidine-7-carboxylic acid (4-acetylamino-cyclohexyl)-amide] | – |
| 9.65 | O=C(N[C@H]1CC[C@@H](NC(=O)C2CC2)CC1)c1c[nH]c2c(-c3c(OCC4CC4)ccc4c3OCO4)ncnc12 [Example 8, cis-4-(5-Cyclopropylmethoxy-benzo[1,3]dioxol-4-yl)-5H-pyrrolo[3,2-d]pyrimidine-7-carboxylic acid {4-[(1-cyclopropyl-methanoyl)-amino]-cyclohexyl}-amide] | – |
| 8.94 | COCC(=O)N[C@H]1CC[C@@H](NC(=O)c2c[nH]c3c(-c4c(OCC5CC5)ccc5c4OCO5)ncnc23)CC1 [Example 9, cis-4-(5-Cyclopropylmethoxy-benzo[1,3]dioxol-4-yl)-5H-pyrrolo[3,2-d]pyrimidine-7-carboxylic acid [4-(2-methoxy-ethanoylamino)-cyclohexyl]-amide] | – |
| 9.70 | CCOC(=O)N[C@H]1CC[C@@H](NC(=O)c2c[nH]c3c(-c4c(OCC5CC5)ccc5c4OCO5)ncnc23)CC1 [Example 10, cis-[4-({1-[4-(5-Cyclopropylmethoxy-benzo[1,3]dioxol-4-yl)-5H-pyrrolo[3,2-d]pyrimidin-7-yl]-methanoyl}-amino)-cyclohexyl]-carbamic acid ethyl ester] | – |
| 9.84 | CC(=O)N1CCC(NC(=O)c2c[nH]c3c(-c4c(OCC5CC5)ccc5c4OCO5)ncnc23)CC1 [Example 11, 4-(5-Cyclopropylmethoxy-benzo[1,3]dioxol-4-yl)-5H-pyrrolo[3,2-d]pyrimidine-7-carboxylic acid (1-acetyl-piperidin-4-yl)-amide] | – |
| 10.16 | O=C(NC1CCN(C(=O)C2CC2)CC1)c1c[nH]c2c(-c3c(OCC4CC4)ccc4c3OCO4)ncnc12 [Example 12, 4-(5-Cyclopropylmethoxy-benzo[1,3]dioxol-4-yl)-5H-pyrrolo[3,2-d]pyrimidine-7-carboxylic acid [1-(1-cyclopropyl-methanoyl)-piperidin-4-yl]amide] | – |
| 9.11 | COCC(=O)N1CC[C@@H](NC(=O)c2c[nH]c3c(-c4c(OCC5CC5)ccc5c4OCO5)ncnc23)C1 [Example 13, 4-(5-Cyclopropylmethoxy-benzo[1,3]dioxol-4-yl)-5H-pyrrolo[3,2-d]pyrimidine-7-carboxylic acid [(R)-1-(2-methoxy-acetyl)pyrrolidin-3-yl]-amide] | – |
| 8.86 | O=CN1CC[C@@H](NC(=O)c2c[nH]c3c(-c4c(OCC5CC5)ccc5c4OCO5)ncnc23)C1 [Example 14, 4-(5-Cyclopropylmethoxy-benzo[1,3]dioxol-4-yl)-5H-pyrrolo[3,2-d]pyrimidine-7-carboxylic acid ((R)-1-formyl-pyrrolidin-3-yl)-amide] | – |
| 9.00 | CC(=O)N1CC[C@@H](NC(=O)c2c[nH]c3c(-c4c(OCC5CC5)ccc5c4OCO5)ncnc23)C1 [Example 15, 4-(5-Cyclopropylmethoxy-benzo[1,3]dioxol-4-yl)-5H-pyrrolo[3,2-d]pyrimidine-7-carboxylic acid ((R)-1-acetyl-pyrrolidin-3-yl)-amide] | – |
| 9.41 | O=C(N[C@@H]1CCN(C(=O)C2CC2)C1)c1c[nH]c2c(-c3c(OCC4CC4)ccc4c3OCO4)ncnc12 [Example 16, 4-(5-Cyclopropylmethoxy-benzo[1,3]dioxol-4-yl)-5H-pyrrolo[3,2-d]pyrimidine-7-carboxylic acid [(R)-1-(1-cyclopropyl-methanoyl)-pyrrolidin-3-yl]amide] | – |
| 9.47 | CCOC(=O)N1CC[C@@H](NC(=O)c2c[nH]c3c(-c4c(OCC5CC5)ccc5c4OCO5)ncnc23)C1 [Example 17, (R)-3-({1-[4-(5-Cyclopropylmethoxy-benzo[1,3]dioxol-4-yl)-5H-pyrrolo[3,2-d]pyrimidin-7-yl]-methanoyl}-amino)-pyrrolidine-1-carboxylic acid ethyl ester] | – |
| 8.74 | O=CN1CC[C@H](NC(=O)c2c[nH]c3c(-c4c(OCC5CC5)ccc5c4OCO5)ncnc23)C1 [Example 18, 4-(5-Cyclopropylmethoxy-benzo[1,3]dioxol-4-yl)-5H-pyrrolo[3,2-d]pyrimidine-7-carboxylic acid ((S)-1-formyl-pyrrolidin-3-yl)-amide] | – |
| 8.61 | CC(=O)N1CC[C@H](NC(=O)c2c[nH]c3c(-c4c(OCC5CC5)ccc5c4OCO5)ncnc23)C1 [Example 19, 4-(5-Cyclopropylmethoxy-benzo[1,3]dioxol-4-yl)-5H-pyrrolo[3,2-d]pyrimidine-7-carboxylic acid ((S)-1-acetyl-pyrrolidin-3-yl)-amide] | – |
| 9.27 | O=C(N[C@H]1CCN(C(=O)C2CC2)C1)c1c[nH]c2c(-c3c(OCC4CC4)ccc4c3OCO4)ncnc12 [Example 20, 4-(5-Cyclopropylmethoxy-benzo[1,3]dioxol-4-yl)-5H-pyrrolo[3,2-d]pyrimidine-7-carboxylic acid [(S)-1-(1-cyclopropyl-methanoyl)-pyrrolidin-3-yl]amide] | – |
| 8.74 | COCC(=O)N1CC[C@H](NC(=O)c2c[nH]c3c(-c4c(OCC5CC5)ccc5c4OCO5)ncnc23)C1 [Example 21, 4-(5-Cyclopropylmethoxy-benzo[1,3]dioxol-4-yl)-5H-pyrrolo[3,2-d]pyrimidine-7-carboxylic acid [(S)-1-(2-methoxy-ethanoyl)-pyrrolidin-3-yl]amide] | – |
